Results: the NIST ThermoML archive (doi:10.1007/s10765-010-0773-1)
± gives the expanded uncertainty stated by the source.

Experiments:
[1] = refractive index (Na D-line) (dimensionless); settings: 298.15 K; 101.33 kPa; Liquid; Standard Abbe refractometry
[2] = xn = mol fraction of the nth substance listed; settings: 101 kPa, Liquid, x2 = 0; for mass density: Vibrating tube method; for speed of sound: Pulse-echo method

Structure (SMILES)	refractive index [1]	mass density ([2]; 288.15 K)	speed of sound ([2]; 292.87 K)	mass density ([2]; 293.15 K)	speed of sound ([2]; 298.14 K)	mass density ([2]; 298.15 K)	speed of sound ([2]; 303.12 K)	mass density ([2]; 303.15 K)	speed of sound ([2]; 308.1 K)	mass density ([2]; 308.15 K)	mass density ([2]; 313.15 K)	speed of sound ([2]; 313.27 K)	mass density ([2]; 318.15 K)
BrCBr [dibromomethane]	1.3851 ± 0.0011	–	–	–	–	–	–	–	–	–	–	–	–
CCCCCCC [heptane] + BrCBr	–	688.15 ± 0.25 kg/m3	1152.5 ± 1.6 m/s	683.94 ± 0.25 kg/m3	1129.7 ± 1.6 m/s	679.7 ± 0.25 kg/m3	1108.2 ± 1.6 m/s	675.44 ± 0.25 kg/m3	1086.8 ± 1.6 m/s	671.15 ± 0.25 kg/m3	666.83 ± 0.25 kg/m3	1064.7 ± 1.6 m/s	662.48 ± 0.25 kg/m3
